Measured values as given in patent US20210276960A1, “INHIBITORS OF TISSUE TRANSGLUTAMINASE 2 (TG2) AND USES THEREOF” (Northwestern University, priority 2020, published 2021).

Columns and labels:
purified TG2 = target: T1, purified TG2 (UniProt P08587); conditions: not shown, see ref 11; cited from earlier work
T1 construct: purchased Sigma T5398

SKOV3 cells [1] = conditions: cited from earlier work
FN45-TG2 interaction = experiment: Bio-layer interferometry (BLI) of FN45-TG2 binding
Procedure: The 45 kDa fibronectin fragment (FN45) corresponding to the TG2 binding region (Sigma, # F0162) was biotinylated using Biotin (Type A) Fast Conjugation Kit (Abcam, # ab201795). Biotinylated FN45 (10 μg/mL in PBS) was captured on pre-hydrated streptavidin-coated sensors (Pall Forte Bio SAX 18-5117). At each TG2 concentration, the binding kinetics were determined by following this sequence run: baseline (PBS for 30 s), association step (varying concentrations of TG2 in PBS for 120 s), and dissociation step (PBS for 120 s). A new FN45 biosensor was prepared for each run. To analyze the effect of the inhibitor MT4 on the interaction between TG2 and FN, a solution of 20 μg/mL of bio-FN45 was used for capturing FN45 on the streptavidin-coated sensors and the association step was 90 s. For each sensor, the capturing step was measured in real-time in order to assess the stability of the signal and the reproducibility between sensors. The saturation level Rmax was 0.6 (+0.08) for all sensors and no dissociation of the biotinylated FN45 was observed over 60 minutes. […] For the experiments with (TG2+MT4), controls were performed at each MT4 concentration and Rmax values were corrected for non-specific binding and any effects of DMSO on the TG2-FN45 interaction (these effects were below 8%). All BLI experiments were performed at 22° C. Data fitted globally using the BLItz Pro 1.10.31 software package as described(14, 15). Isothermal titration calorimetry (ITC) was performed at 25° C. by titrating 160 μM MT4 into a 10 μM solution of TG2 (Sigma, #T5398).

[2] = test system: SKOV3 cells adhesion onto LP9 monolayers; experiment: Cell adhesion to LP9 mesothelial monolayers, SKOV3; type: cell-based; conditions: 25 μM
Procedure: LP9 mesothelial cells added to clear-bottom 96-well plate at 12,000 cells/well were grown to confluency over 48 hours (h). OC cells were labeled with calcein AM and seeded at a density of 4×10^4 cells to monolayers of mesothelial cells and incubated for 1 h. Non-adherent cells were removed by washing with PBS.

SKOV3 cells [3] = experiment: Wound-healing assay, SKOV3; type: cell-based; conditions: 8 μM, 24 hours
Procedure: Wound Healing was Performed in 12-Well Plates Coated with 1 μg/Ml FN (Sigma, #1141) overnight at 4° C. OC cells were plated at a density of 2×10^5 cells/well in media containing 2% FBS. Under these conditions cells adhered on substrate, but cell proliferation was minimized. After 16 hours, the cell monolayer was scraped in straight line. Cell debris was removed and serum free media containing selected SMIs or control was replenished. For consistency during image acquisition, a reference point was marked close to the scratch mark and the plate was imaged under phase-contrast microscope at 0, 2, 6, 12 and 24 hours. Wound closure was assessed as the distance between the wound edges, calculated and quantified using the Image Pro-Express software. The percentage of wound closure was evaluated using the formula […]. The rate of migration (μm/h) of OC cells into the wound space was evaluated as the distance difference between wound edges at 0 and 24 h, divided by 24. The experiments were performed in duplicates.

OVCAR5 cells = experiment: Colony forming assay after priming, with paclitaxel; type: cell-based, human; conditions: priming with 1 μM for 72 hours before 5 nM PTX
Procedure: After 72 h priming with either 1 μM MT-4, TG53 or vehicle (DMSO), 150 OVCAR5 cells were seeded in 60 mm dishes and treated or not with paclitaxel (PTX, Sigma). Colonies were allowed to form over 10 days, fixed in 4% PFA and stained with 0.4% crystal violet (MP Biomedicals). Colonies were counted, and analysis was performed using the ImageJ software ([…]).Spheroid cultures were carried out as previously described(Condello et al., 2015). Briefly, OC cells were resuspended in Mammocult complete medium (StemCell Technologies) supplemented with Mammocult Proliferation Supplements, heparin and hydrocortisone (StemCell Technologies) and seeded at a concentration of 10,000 cells/well in 96-well ultra-low attachment plates (Corning, Corning, N.Y., USA). After treatment with DMSO (control) or TG53 (1 μM) for 7 days, spheroids were counted and quantified by the CCK-8 assay. All assays were performed in four replicates and were repeated. For priming before PTX treatment, cells were manipulated as described for CFU assay and then seeded in 6-well low-attachment plate (Corning, #3473) at 7000 cells/mL/well and allowed to form spheroids in complete Mammocult media. Spheres were counted after ten days from 4 replicate wells. Two independent experiments were performed.

T1 sequence (P08587 whole entry): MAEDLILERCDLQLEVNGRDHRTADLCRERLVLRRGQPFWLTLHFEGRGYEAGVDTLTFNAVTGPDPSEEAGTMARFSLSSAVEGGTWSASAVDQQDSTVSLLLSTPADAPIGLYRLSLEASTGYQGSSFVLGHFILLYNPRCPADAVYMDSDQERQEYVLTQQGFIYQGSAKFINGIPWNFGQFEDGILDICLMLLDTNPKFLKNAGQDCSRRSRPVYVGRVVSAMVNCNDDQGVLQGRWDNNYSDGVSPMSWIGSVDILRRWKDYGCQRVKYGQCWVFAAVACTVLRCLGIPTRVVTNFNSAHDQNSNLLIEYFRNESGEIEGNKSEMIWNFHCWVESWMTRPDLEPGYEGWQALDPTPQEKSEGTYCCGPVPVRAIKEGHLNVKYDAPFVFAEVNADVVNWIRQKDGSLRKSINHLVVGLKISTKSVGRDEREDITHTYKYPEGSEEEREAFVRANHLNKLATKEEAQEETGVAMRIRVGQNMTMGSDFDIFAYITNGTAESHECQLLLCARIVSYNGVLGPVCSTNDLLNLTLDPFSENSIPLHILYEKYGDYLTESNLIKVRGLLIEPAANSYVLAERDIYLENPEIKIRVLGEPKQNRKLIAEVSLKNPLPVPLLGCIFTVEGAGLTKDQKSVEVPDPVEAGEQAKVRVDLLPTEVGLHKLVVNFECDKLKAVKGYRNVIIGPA

COc1ccc(Cl)cc1C(=O)Nc1ccc(Nc2nc(C)cc(N(C)C)n2)cc1 [TG53]
TG2 enzymatic activity (purified TG2): did not inhibit | cytotoxicity (SKOV3 cells [1]): not cytotoxic

Cc1cc(N(C)C)nc(Nc2ccc(NC(=O)Cc3ccccc3)cc2)n1 [MT-4]
FN45 and rTG2 complex formation (FN45-TG2 interaction; FN45 on sensors incubated with MT4, 16 nM to 500 μM, 15, 30, 45 minutes): not affected | dissociation of FN45-TG2 (FN45-TG2 interaction; TG2 pre-incubated with MT4): faster dissociation | association between FN45 and rTG2 (FN45-TG2 interaction; rTG2 incubated with MT4 prior to BLI): Dose-dependent inhibition | SKOV3 cell binding to the mesothelial layer [2]: significantly decreased | motility (scratch repair) (SKOV3 cells [3]): inhibited | colony formation (OVCAR5 cells): diminished
